# Source: PubChem BioAssay (NCI)
#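 Grown in 96-well plates, cells were treated for 48 hours with each compound at five concentrations. Insufficient inhibition: endpoint recorded as highest concentration tested. GI50 marks 50% less growth. TGI is the concentration that stops growth completely.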
# Assays:
# Test in all cases: NCI-60 cell line screen, 48 h
# RXF 393 renal = system: RXF 393 renal
# IGROV1 ovarian = system: IGROV1 ovarian
# MDA-MB-435 = system: MDA-MB-435
# HT29 colon = system: HT29 colon
# DU-145 prostate = system: DU-145 prostate
# KM12 colon = system: KM12 colon
# SK-OV-3 ovarian = system: SK-OV-3 ovarian
# UO-31 renal = system: UO-31 renal
# T-47D breast = system: T-47D breast
# NCI-H522 lung = system: NCI-H522 lung
# OVCAR-3 ovarian = system: OVCAR-3 ovarian
# 786-0 renal = system: 786-0 renal
# MDA-MB-231 breast = system: MDA-MB-231 breast
# LOX IMVI melanoma = system: LOX IMVI melanoma
# OVCAR-4 ovarian = system: OVCAR-4 ovarian
# SF-539 CNS = system: SF-539 CNS
# OVCAR-5 ovarian = system: OVCAR-5 ovarian
# PC-3 prostate = system: PC-3 prostate
# NCI-H460 lung = system: NCI-H460 lung
# HCC-2998 colon = system: HCC-2998 colon
# BT-549 breast = system: BT-549 breast
# OVCAR-8 ovarian = system: OVCAR-8 ovarian
# SK-MEL-5 melanoma = system: SK-MEL-5 melanoma
# COLO 205 colon = system: COLO 205 colon
# SK-MEL-28 melanoma = system: SK-MEL-28 melanoma
# UACC-62 melanoma = system: UACC-62 melanoma
# NCI-H226 lung = system: NCI-H226 lung
# HOP-62 NSCLC = system: HOP-62 NSCLC
# SW-620 colon = system: SW-620 colon
# MOLT-4 leukemia = system: MOLT-4 leukemia
# M14 melanoma = system: M14 melanoma
# CAKI-1 renal = system: CAKI-1 renal
# SF-295 CNS = system: SF-295 CNS
# SR leukemia = system: SR leukemia
# HS 578T breast = system: HS 578T breast
# MCF7 breast = system: MCF7 breast
# SNB-19 CNS = system: SNB-19 CNS
# TK-10 renal = system: TK-10 renal
# UACC-257 melanoma = system: UACC-257 melanoma
# U251 CNS = system: U251 CNS
# EKVX NSCLC = system: EKVX NSCLC
# HL-60(TB) leukemia = system: HL-60(TB) leukemia
# NCI/ADR-RES ovarian = system: NCI/ADR-RES ovarian
# SN12C renal = system: SN12C renal
# A549 NSCLC = system: A549 NSCLC
# K-562 leukemia = system: K-562 leukemia
# A498 renal = system: A498 renal
# ACHN renal = system: ACHN renal
# SF-268 CNS = system: SF-268 CNS
# HCT-116 colon = system: HCT-116 colon
# NCI-H23 lung = system: NCI-H23 lung
# HCT-15 colon = system: HCT-15 colon
# CCRF-CEM leukemia = system: CCRF-CEM leukemia
# MALME-3M melanoma = system: MALME-3M melanoma
smiles,measurement,setting,value
O=C(Nc1cc(Cl)ccc1O)c1cccc(NC2=C(Cl)C(=O)N(Cc3ccccc3)C2=O)c1,GI50,RXF 393 renal,17.4 µM
same,TGI,RXF 393 renal,45.1 µM
same,GI50,IGROV1 ovarian,35.4 µM
same,TGI,IGROV1 ovarian,> 100 µM
same,GI50,MDA-MB-435,18.7 µM
same,TGI,MDA-MB-435,38.6 µM
same,GI50,HT29 colon,35.9 µM
same,TGI,HT29 colon,> 100 µM
same,GI50,DU-145 prostate,60.7 µM
same,TGI,DU-145 prostate,> 100 µM
same,GI50,KM12 colon,21.4 µM
same,TGI,KM12 colon,52 µM
same,GI50,SK-OV-3 ovarian,69.1 µM
same,TGI,SK-OV-3 ovarian,> 100 µM
same,GI50,UO-31 renal,38.3 µM
same,TGI,UO-31 renal,> 100 µM
same,GI50,T-47D breast,29 µM
same,TGI,T-47D breast,> 100 µM
same,GI50,NCI-H522 lung,11.2 µM
same,TGI,NCI-H522 lung,26.3 µM
same,GI50,OVCAR-3 ovarian,23.4 µM
same,TGI,OVCAR-3 ovarian,54.4 µM
same,GI50,786-0 renal,22.7 µM
same,TGI,786-0 renal,50.9 µM
same,GI50,MDA-MB-231 breast,16.8 µM
same,TGI,MDA-MB-231 breast,40.3 µM
same,GI50,LOX IMVI melanoma,15.7 µM
same,TGI,LOX IMVI melanoma,32.1 µM
same,GI50,OVCAR-4 ovarian,55.5 µM
same,TGI,OVCAR-4 ovarian,> 100 µM
same,GI50,SF-539 CNS,27.2 µM
same,TGI,SF-539 CNS,58.9 µM
same,GI50,OVCAR-5 ovarian,45.8 µM
same,TGI,OVCAR-5 ovarian,> 100 µM
same,GI50,PC-3 prostate,19.2 µM
same,TGI,PC-3 prostate,46.1 µM
same,GI50,NCI-H460 lung,18.6 µM
same,TGI,NCI-H460 lung,40.9 µM
same,GI50,HCC-2998 colon,17 µM
same,TGI,HCC-2998 colon,32.1 µM
same,GI50,BT-549 breast,26.7 µM
same,TGI,BT-549 breast,80.5 µM
same,GI50,OVCAR-8 ovarian,14.5 µM
same,TGI,OVCAR-8 ovarian,38.8 µM
same,GI50,SK-MEL-5 melanoma,17 µM
same,TGI,SK-MEL-5 melanoma,31.5 µM
same,GI50,COLO 205 colon,30.9 µM
same,TGI,COLO 205 colon,> 100 µM
same,GI50,SK-MEL-28 melanoma,42.4 µM
same,TGI,SK-MEL-28 melanoma,> 100 µM
same,GI50,UACC-62 melanoma,31.7 µM
same,TGI,UACC-62 melanoma,> 100 µM
same,GI50,NCI-H226 lung,17.4 µM
same,TGI,NCI-H226 lung,36.6 µM
same,GI50,HOP-62 NSCLC,26.7 µM
same,TGI,HOP-62 NSCLC,67.3 µM
same,GI50,SW-620 colon,21.3 µM
same,TGI,SW-620 colon,49.9 µM
same,GI50,MOLT-4 leukemia,3.24 µM
same,TGI,MOLT-4 leukemia,15.8 µM
same,GI50,M14 melanoma,17.8 µM
same,TGI,M14 melanoma,36.7 µM
same,GI50,CAKI-1 renal,22.5 µM
same,TGI,CAKI-1 renal,68 µM
same,GI50,SF-295 CNS,20.5 µM
same,TGI,SF-295 CNS,47.6 µM
same,GI50,SR leukemia,4.8 µM
same,TGI,SR leukemia,22.8 µM
same,GI50,HS 578T breast,20.9 µM
same,TGI,HS 578T breast,49.9 µM
same,GI50,MCF7 breast,13.3 µM
same,TGI,MCF7 breast,36.9 µM
same,GI50,SNB-19 CNS,48.4 µM
same,TGI,SNB-19 CNS,> 100 µM
same,GI50,TK-10 renal,37.3 µM
same,TGI,TK-10 renal,95.5 µM
same,GI50,UACC-257 melanoma,23.8 µM
same,TGI,UACC-257 melanoma,68.2 µM
same,GI50,U251 CNS,18.2 µM
same,TGI,U251 CNS,37.3 µM
same,GI50,EKVX NSCLC,> 100 µM
same,TGI,EKVX NSCLC,> 100 µM
same,GI50,HL-60(TB) leukemia,15.9 µM
same,TGI,HL-60(TB) leukemia,38.7 µM
same,GI50,NCI/ADR-RES ovarian,20.7 µM
same,TGI,NCI/ADR-RES ovarian,43.4 µM
same,GI50,SN12C renal,16 µM
same,TGI,SN12C renal,33.6 µM
same,GI50,A549 NSCLC,36.9 µM
same,TGI,A549 NSCLC,> 100 µM
same,GI50,K-562 leukemia,15.2 µM
same,TGI,K-562 leukemia,38.5 µM
same,GI50,A498 renal,25.8 µM
same,TGI,A498 renal,> 100 µM
same,GI50,ACHN renal,35.6 µM
same,TGI,ACHN renal,> 100 µM
same,GI50,SF-268 CNS,18.5 µM
same,TGI,SF-268 CNS,38.2 µM
same,GI50,HCT-116 colon,17.2 µM
same,TGI,HCT-116 colon,31 µM
same,GI50,NCI-H23 lung,16.1 µM
same,TGI,NCI-H23 lung,33.6 µM
same,GI50,HCT-15 colon,13.3 µM
same,TGI,HCT-15 colon,27.6 µM
same,GI50,CCRF-CEM leukemia,2.14 µM
same,TGI,CCRF-CEM leukemia,11.5 µM
same,GI50,MALME-3M melanoma,30.5 µM
same,TGI,MALME-3M melanoma,86.4 µM
